Molecular target: T1, Interstitial collagenase (Homo sapiens, UniProt P03956)
T1 sequence (P03956 whole entry): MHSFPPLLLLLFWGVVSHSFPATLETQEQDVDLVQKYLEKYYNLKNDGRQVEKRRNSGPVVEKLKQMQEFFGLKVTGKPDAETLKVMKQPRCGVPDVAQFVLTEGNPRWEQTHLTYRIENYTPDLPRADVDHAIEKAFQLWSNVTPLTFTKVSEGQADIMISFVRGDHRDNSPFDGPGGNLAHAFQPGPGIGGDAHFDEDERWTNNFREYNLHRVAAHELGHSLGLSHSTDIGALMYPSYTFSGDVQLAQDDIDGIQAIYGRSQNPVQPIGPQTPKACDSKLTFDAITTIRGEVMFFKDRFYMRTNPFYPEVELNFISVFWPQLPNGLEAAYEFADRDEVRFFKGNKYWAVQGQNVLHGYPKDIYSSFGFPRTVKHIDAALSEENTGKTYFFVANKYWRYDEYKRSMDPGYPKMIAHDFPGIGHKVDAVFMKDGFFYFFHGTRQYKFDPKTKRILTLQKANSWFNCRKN
Assay: Inhibition of Matrix Metallo Proteinase-1 (MMP-1)

CNC(=O)[C@H](Cc1ccc(OC)cc1)NC(=O)C1(CC(=O)NO)CCCCC1
IC50: 150 nM

CNC(=O)[C@H](Cc1ccc(OC)cc1)NC(=O)C(C)(CC(=O)NO)CC(C)C (stereo partly specified)
IC50: 460 nM

CNC(=O)[C@H](Cc1ccc(OC)cc1)NC(=O)C1(CC(=O)NO)CCCC1
IC50: 2800 nM

CNC(=O)[C@H](Cc1ccc(OC)cc1)NC(=O)[C@@]1(CC(=O)NO)CCc2ccccc21
IC50: > 30000 nM

CNC(=O)[C@H](Cc1ccc(OC)cc1)NC(=O)C1(CC(=O)NO)Cc2ccccc2C1
IC50: 570 nM

CNC(=O)[C@H](Cc1ccc(OC)cc1)NC(=O)[C@]1(CC(=O)NO)CCc2ccccc21
IC50: 17500 nM

CNC(=O)[C@H](Cc1ccc(OC)cc1)NC(=O)C(C)(CC(=O)NO)c1ccccc1 (stereo partly specified)
IC50: 3800 nM

CNC(=O)[C@H](Cc1ccc(OC)cc1)NC(=O)C(CC(=O)NO)c1ccccc1 (stereo partly specified)
IC50: 40 nM

CNC(=O)[C@H](Cc1ccc(OC)cc1)NC(=O)C1(CC(=O)NO)CCCc2ccccc21 (stereo partly specified)
IC50: 770 nM

CNC(=O)[C@H](Cc1ccc(OC)cc1)NC(=O)C1(CC(=O)NO)Cc2ccccc21 (stereo in doubt; form 1)
IC50: 2200 nM

CNC(=O)[C@H](Cc1ccc(OC)cc1)NC(=O)C1(CC(=O)NO)Cc2ccccc21 (stereo in doubt; form 2)
IC50: 800 nM
